# In US6228841A, “Peptide derivatives” (Daiichi Pharmaceutical Co., Ltd., priority 1995, dated 2001):
# Like-named read-outs stand apart in the source and are kept apart here.
# System: mice
# Assay: analgesic activity by pressure stimulation method (base of tail)
# Format: in vivo
# Conditions: Mus musculus, read-out: ED50 (dose providing 50% of % of MPE, analgesic activity)
# Description: The analgesic activities of peptide derivatives of the present invention were evaluated by pressure stimulation method as follows. Mice were subjected to pressure stimulation at the bases of their tails at a rate of 10 mmHg/second. […] For the experiments, mice that were preliminary determined to respond to a pressure of 40-50 mmHg were used. The maximum stimulating pressure was 100 mmHg. Analgesic activity was calculated as percent of maximum possible effect (% of MPE) according to the following equation: [formula]
# wherein Po is the pain reaction threshold before the administration of a drug; Pt is the pain reaction threshold "t" minutes after the administration of the drug; and Pc is the maximum stimulating pressure. According to a dose-response curve, ED50 value was determined as a dose of drug providing 50% of % of MEP and used for comparison of analgesic activity of drugs.
structure (smiles),measurement,setting,value
CN1CC[C@]23c4c5ccc(O)c4O[C@H]2[C@@H](O)C=C[C@H]3[C@H]1C5 [morphine],ED50,oral administration,29.6 mg/kg
same,ED50,"sc, subcutaneous administration (skin in the backs)",4.6 mg/kg
